Data published in the Kinase Knowledgebase extract (Sharma et al. 2016).
pEC50: −log10 of the molar value.

Target: EGFR (Human), P00533 [T790M/L858R]
Details: nci-h1975

Chain of EGFR (Human), P00533 [T790M/L858R] (P00533 whole entry T790M/L858R, looked up): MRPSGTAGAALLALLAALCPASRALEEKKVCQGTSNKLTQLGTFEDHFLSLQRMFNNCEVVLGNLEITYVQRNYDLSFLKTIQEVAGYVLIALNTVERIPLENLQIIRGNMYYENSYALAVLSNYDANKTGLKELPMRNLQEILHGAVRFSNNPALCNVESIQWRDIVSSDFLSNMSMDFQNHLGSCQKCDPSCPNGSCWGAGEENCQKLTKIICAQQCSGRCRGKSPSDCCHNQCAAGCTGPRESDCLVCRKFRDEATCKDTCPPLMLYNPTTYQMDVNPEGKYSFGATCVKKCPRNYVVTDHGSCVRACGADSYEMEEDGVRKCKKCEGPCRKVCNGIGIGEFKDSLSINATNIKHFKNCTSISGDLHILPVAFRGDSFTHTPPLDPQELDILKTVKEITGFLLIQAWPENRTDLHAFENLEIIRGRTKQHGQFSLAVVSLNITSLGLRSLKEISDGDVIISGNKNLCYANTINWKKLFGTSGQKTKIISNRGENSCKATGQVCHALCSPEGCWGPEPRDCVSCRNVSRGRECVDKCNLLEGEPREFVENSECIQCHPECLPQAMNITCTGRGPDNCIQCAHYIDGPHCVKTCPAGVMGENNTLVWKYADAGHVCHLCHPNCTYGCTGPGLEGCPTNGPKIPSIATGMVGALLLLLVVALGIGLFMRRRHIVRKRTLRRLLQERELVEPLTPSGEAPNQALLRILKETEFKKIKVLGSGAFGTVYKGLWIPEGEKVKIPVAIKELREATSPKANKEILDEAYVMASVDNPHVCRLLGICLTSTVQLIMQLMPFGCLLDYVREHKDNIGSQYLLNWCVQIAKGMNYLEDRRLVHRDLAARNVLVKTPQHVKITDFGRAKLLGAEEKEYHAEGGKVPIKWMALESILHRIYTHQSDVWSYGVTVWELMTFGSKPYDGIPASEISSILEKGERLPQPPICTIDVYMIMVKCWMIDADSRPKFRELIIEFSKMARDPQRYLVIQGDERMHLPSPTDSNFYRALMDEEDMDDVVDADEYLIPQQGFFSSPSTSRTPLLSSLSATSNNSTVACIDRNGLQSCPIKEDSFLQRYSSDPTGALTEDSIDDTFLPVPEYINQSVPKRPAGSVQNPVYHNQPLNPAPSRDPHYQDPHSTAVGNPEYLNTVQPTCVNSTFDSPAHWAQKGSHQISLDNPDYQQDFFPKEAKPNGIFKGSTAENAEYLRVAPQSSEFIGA

pEC50 | SMILES
6.32 | CCNC(=O)C1CN(c2nn(C(C)C)c3cc(Nc4ccnc(-c5cnn(S(=O)(=O)C6CC6)c5)n4)ncc23)C1
6.80 | CC(C)n1nc(N2CCC2)c2cnc(Nc3ccnc(-c4cnn(S(=O)(=O)C5CC5)c4)n3)cc21
6.63 | CC(C)n1nc(N2CCCC2=O)c2cnc(Nc3ccnc(-c4cnn(S(=O)(=O)C5CC5)c4)n3)cc21
5.69 | CC(C)n1nc(N2CCS(=O)(=O)CC2)c2cnc(Nc3ccnc(-c4cnn(S(=O)(=O)C5CC5)c4)n3)cc21
6.61 | CC(C)n1nc(N)c2cnc(Nc3ccnc(-c4cnn(S(=O)(=O)C5CC5)c4)n3)cc21
5.99 | CCN1CCN(c2nn(C(C)C)c3cc(Nc4ccnc(-c5cnn(S(=O)(=O)C6CC6)c5)n4)ncc23)CC1
5.43 | CC(C)c1nn(C(C)C)c2cc(Nc3ccnc(-c4cnn(S(=O)(=O)C5CC5)c4)n3)ncc12
6.02 | CC(C)Nc1nn(C(C)C)c2cc(Nc3ccnc(-c4cnn(S(=O)(=O)C5CC5)c4)n3)ncc12
< 5.00 | CC(C)n1nc(N2CCN(C)C2=O)c2cnc(Nc3ccnc(-c4cnn(S(=O)(=O)C5CC5)c4)n3)cc21
6.78 | CC(C)n1nc(NC2COC2)c2cnc(Nc3ccnc(-c4cnn(S(=O)(=O)C5CC5)c4)n3)cc21
6.79 | CC(C)n1nc(N2CC[C@@H](CO)C2)c2cnc(Nc3ccnc(-c4cnn(S(=O)(=O)C5CC5)c4)n3)cc21
6.62 | CC(C)n1nc(N2C[C@H](O)[C@@H](F)C2)c2cnc(Nc3ccnc(-c4cnn(S(=O)(=O)C5CC5)c4)n3)cc21
6.38 | CC(C)n1nc(N2CC3(COC3)C2)c2cnc(Nc3ccnc(-c4cnn(S(=O)(=O)C5CC5)c4)n3)cc21
5.92 | CC(C)n1nc(N2CC3CCC(C2)O3)c2cnc(Nc3ccnc(-c4cnn(S(=O)(=O)C5CC5)c4)n3)cc21
6.57 | CC(C)n1nc(N2CC(CO)C2)c2cnc(Nc3ccnc(-c4cnn(S(=O)(=O)C5CC5)c4)n3)cc21
6.03 | CCN1CCN(c2nn(C(C)C)c3cc(Nc4ccnc(-c5cnn(S(=O)(=O)C6CC6)c5)n4)ncc23)C1=O
6.63 | CC(C)n1nc(N2CCN=C2O)c2cnc(Nc3ccnc(-c4cnn(S(=O)(=O)C5CC5)c4)n3)cc21

pEC50 | SMILES
6.79 | CC(C)n1nc(N2CCC(C(=O)N(C)C)C2)c2cnc(Nc3ccnc(-c4cnn(S(=O)(=O)C5CC5)c4)n3)cc21 (stereo not given)
6.58 | CC(O)C1CN(c2nn(C(C)C)c3cc(Nc4ccnc(-c5cnn(S(=O)(=O)C6CC6)c5)n4)ncc23)C1 (stereo not given)
6.57 | CC(C)n1nc(N2CCOCC2)c2cnc(Nc3ccnc(-c4cnn(S(=O)(=O)C5CC5)c4)n3)cc21
6.19 | CNC(=O)C1CN(c2nn(C(C)C)c3cc(Nc4ccnc(-c5cnn(S(=O)(=O)C6CC6)c5)n4)ncc23)C1
5.83 | CC(C)n1nc(C2CCOC2)c2cnc(Nc3ccnc(-c4cnn(S(=O)(=O)C5CC5)c4)n3)cc21 (stereo not given)
< 5.00 | CC(C)n1nc(N2CC(C(=O)NC3CC(O)C3)C2)c2cnc(Nc3ccnc(-c4cnn(S(=O)(=O)C5CC5)c4)n3)cc21 (stereo not given)
6.62 | CC(C)n1nc(N2CCOC(CO)C2)c2cnc(Nc3ccnc(-c4cnn(S(=O)(=O)C5CC5)c4)n3)cc21 (stereo not given)
6.84 | CC(C)n1nc(N2CC(C#N)C2)c2cnc(Nc3ccnc(-c4cnn(S(=O)(=O)C5CC5)c4)n3)cc21
5.75 | CC(C)n1nc(N2CCC3(CNC(=O)C3)C2)c2cnc(Nc3ccnc(-c4cnn(S(=O)(=O)C5CC5)c4)n3)cc21 (stereo not given)
6.43 | CC(C)n1nc(N[C@H]2CCOC2)c2cnc(Nc3ccnc(-c4cnn(S(=O)(=O)C5CC5)c4)n3)cc21
5.95 | CC(C)n1nc(N2CC(O)C2)c2cnc(Nc3ccnc(-c4cnn(S(=O)(=O)C5CC5)c4)n3)cc21
6.74 | CC(C)n1nc(N2CC(CC#N)C2)c2cnc(Nc3ccnc(-c4cnn(S(=O)(=O)C5CC5)c4)n3)cc21
6.54 | CC(C)n1nc(N2CC(C)(O)C2)c2cnc(Nc3ccnc(-c4cnn(S(=O)(=O)C5CC5)c4)n3)cc21
6.67 | CCC(C)n1nc(N2CC3(COC3)C2)c2cnc(Nc3ccnc(-c4cnn(S(=O)(=O)C5CC5)c4)n3)cc21 (stereo not given)
5.60 | CC(C)n1nc(N2CC(C(=O)N3CC[C@@H](O)C3)C2)c2cnc(Nc3ccnc(-c4cnn(S(=O)(=O)C5CC5)c4)n3)cc21
6.13 | CC(C)n1nc(N2CCC3(CCNC3=O)C2)c2cnc(Nc3ccnc(-c4cnn(S(=O)(=O)C5CC5)c4)n3)cc21 (stereo not given)

Second part, the compound before the results:

SMILES | pEC50
CC(C)n1nc(OC2CCOC2)c2cnc(Nc3ccnc(-c4cnn(S(=O)(=O)C5CC5)c4)n3)cc21 (stereo not given) | 6.10
CC(C)n1nc(N2CC(C(=O)NCC(F)(F)F)C2)c2cnc(Nc3ccnc(-c4cnn(S(=O)(=O)C5CC5)c4)n3)cc21 | 6.71
CCC(C)n1nc(N2CC[C@@H](O)C2)c2cnc(Nc3ccnc(N4CCC(C)(O)CC4)n3)cc21 (stereo not given in full) | 6.21
CCC(C)n1nc(N2CC[C@@H](O)C2)c2cnc(Nc3ccnc(N4CC[C@H](O)[C@H](F)C4)n3)cc21 (stereo not given in full) | 6.58
COC1CCN(c2nccc(Nc3cc4c(cn3)c(N3CC5(COC5)C3)nn4C(C)C)n2)CC1 | 6.41
CC[C@H](C)n1nc(N2CC[C@@H](O)C2)c2cnc(Nc3ccnc(N4CC[C@](C)(O)[C@H](F)C4)n3)cc21 | 6.28
CC(C)n1nc(NC2CCOCC2)c2cnc(Nc3ccnc(-c4cnn(S(=O)(=O)C5CC5)c4)n3)cc21 | 5.95
CC(C)n1nc(N2CC3(COC3)C2)c2cnc(Nc3ccnc(N4CCC(O)C(C)(C)C4)n3)cc21 (stereo not given) | 6.80
CC(C)n1nc(N2CC(C(=O)N(C)C)C2)c2cnc(Nc3ccnc(N4CCC(O)C(C)(C)C4)n3)cc21 (stereo not given) | 6.46
CC(C)n1nc(N2CC(C(C)(C)C(N)=O)C2)c2cnc(Nc3ccnc(N4CCC(C)(O)CC4)n3)cc21 | < 5.00
CCS(=O)(=O)n1cc(-c2nccc(Nc3cc4c(cn3)c(NC3CCOC3)nn4C(C)C)n2)cn1 (stereo not given) | 6.57
CC(C)n1nc(N2CC3(C2)C[S+]([O-])C3)c2cnc(Nc3ccnc(N4CCC(C)(O)CC4)n3)cc21 | 5.41
CCC(C)n1nc(N2CCN(C(=O)[C@H](C)O)CC2)c2cnc(Nc3ccnc(-c4cnn(S(=O)(=O)C5CC5)c4)n3)cc21 (stereo not given in full) | 6.09
COC1CCN(c2nccc(Nc3cc4c(cn3)c(N)nn4C[C@H]3CC[C@H](N)CC3)n2)CC1 | < 5.00
CC(C)n1nc(NCCC(N)=O)c2cnc(Nc3ccnc(-c4cnn(S(=O)(=O)C5CC5)c4)n3)cc21 | 5.40
CCC(C)n1nc(N2C[C@@H](CO)NC2=O)c2cnc(Nc3ccnc(-c4cnn(S(=O)(=O)C5CC5)c4)n3)cc21 (stereo not given in full) | 5.25
CC[C@@H](C)n1nc(N2CC[C@@H](O)C2)c2cnc(Nc3ccnc(N4CCC5(CC4)CNC(=O)CO5)n3)cc21 | 5.04
CCC(C)n1nc(N2CC[C@@H](O)C2)c2cnc(Nc3ccnc(N4CCC(S(C)(=O)=O)CC4)n3)cc21 (stereo not given in full) | 5.96
CCS(=O)(=O)n1cc(-c2nccc(Nc3cc4c(cn3)c(N3CC(C(=O)N(C)C)C3)nn4C(C)C)n2)cn1 | 6.63
CCC(C)n1nc(N2CC3(COC3)C2)c2cnc(Nc3ccnc(N4CCC(C)(O)CC4)n3)cc21 (stereo not given) | 6.05
CC(C)n1nc(NCC(N)=O)c2cnc(Nc3ccnc(-c4cnn(S(=O)(=O)C5CC5)c4)n3)cc21 | 5.26
CC[C@@H](C)n1nc(N2CC[C@@H](O)C2)c2cnc(Nc3ccnc(N4CC[C@](C)(C(N)=O)C4)n3)cc21 | 5.39
CCC(C)n1nc(N2CC[C@@H](C(N)=O)C2)c2cnc(Nc3ccnc(N4CCC(C)(O)CC4)n3)cc21 (stereo not given in full) | 5.14
CC(C)n1nc(NCC(C)(C)O)c2cnc(Nc3ccnc(-c4cnn(S(=O)(=O)C5CC5)c4)n3)cc21 | 5.92

SMILES | pEC50
CC(C)n1nc(N2CCOCC2)c2cnc(Nc3ccnc(NCC(C)(C)S(C)(=O)=O)n3)cc21 | 5.90
CC[C@H](C)n1nc(N2CC3(COC3)C2)c2cnc(Nc3ccnc(OCC(C)(C)S(C)(=O)=O)n3)cc21 | 6.10
CC(C)n1nc(N2CCCC2)c2cnc(Nc3ccnc(-c4cnn(CC5CC5)c4)n3)cc21 | 5.97
CC(C)n1nc(N2CCCC2)c2cnc(Nc3ccnc(N4CCC(O)C(C)(C)C4)n3)cc21 (stereo not given) | 6.30
CCC(C)n1nc(N2CC[C@H](O)C2=O)c2cnc(Nc3ccnc(-c4cnn(S(=O)(=O)C5CC5)c4)n3)cc21 (stereo not given in full) | 6.16
COCCNC(=O)C1CN(c2nn(C(C)C)c3cc(Nc4ccnc(-c5cnn(S(=O)(=O)C6CC6)c5)n4)ncc23)C1 | 5.84
CCC(C)n1nc(N2CCCC2=O)c2cnc(Nc3ccnc(N4CC[C@@H](O)[C@@H](F)C4)n3)cc21 (stereo not given in full) | 6.52
CCC(C)n1nc(N2CCCC2=O)c2cnc(Nc3ccnc(N4CCC(C)(O)CC4)n3)cc21 (stereo not given) | 6.24
CC(C)n1nc(N2CCOCC2)c2cnc(Nc3ccnc(N4CCC(O)C(C)(C)C4)n3)cc21 (stereo not given) | 5.85
CC(C)n1nc(N2CC(O)C(F)(F)C2)c2cnc(Nc3ccnc(N4CCC(C)(O)CC4)n3)cc21 (stereo not given) | 5.88
CC(C)n1nc(N[C@@H]2CCOC2)c2cnc(Nc3ccnc(-c4cnn(S(=O)(=O)C5CC5)c4)n3)cc21 | 6.11
CCC(C)n1nc(N2CC[C@@H](O)C2)c2cnc(Nc3ccnc(N4CCC(CC#N)(OC)CC4)n3)cc21 (stereo not given in full) | 5.83
CCC(C)n1nc(N2CCNC(=O)C2)c2cnc(Nc3ccnc(N4CCC(C)(O)CC4)n3)cc21 (stereo not given) | 5.75
CC(C)n1nc(NCCS(C)(=N)=O)c2cnc(Nc3ccnc(-c4cnn(S(=O)(=O)C5CC5)c4)n3)cc21 (stereo not given) | < 5.00
CC(C)n1nc(N2CC[C@H](N)C2=O)c2cnc(Nc3ccnc(N4CCC(C)(O)CC4)n3)cc21 | 5.01
CC[C@@H](C)n1nc(N2CC3(COC3)C2)c2cnc(Nc3ccnc(OCC(C)(C)S(C)(=O)=O)n3)cc21 | 5.91
CC(n1nc(N2CC[C@@H](O)C2)c2cnc(Nc3ccnc(N4CCC(C)(O)CC4)n3)cc21)C(F)(F)F (stereo not given in full) | 6.05
CC(C)n1nc(N2CC[C@@H](N)C2=O)c2cnc(Nc3ccnc(N4CCC(C)(O)CC4)n3)cc21 | 5.09
CC[C@H](C)n1nc(N2CC[C@H](O)C2)c2cnc(Nc3ccnc(N4CC[C@](C)(O)[C@H](F)C4)n3)cc21 | 6.43
CCC(C)n1nc(N2CC(C(C)(C)O)C2)c2cnc(Nc3ccnc(N4CCC(O)C(C)(C)C4)n3)cc21 (stereo not given) | 6.54
CC(C)n1ncc2cnc(Nc3ccnc(N4CCC(O)C(C)(C)C4)n3)cc21 (stereo not given) | 6.96
CC(n1nc(N2CC3(COC3)C2)c2cnc(Nc3ccnc(-c4cnn(S(=O)(=O)C5CC5)c4)n3)cc21)C(F)(F)F (stereo not given) | 6.16
CC(C)n1nc(N(C)CC(O)CO)c2cnc(Nc3ccnc(-c4cnn(S(=O)(=O)C5CC5)c4)n3)cc21 (stereo not given) | 6.02
